Measured values: patent US9689040B2, “Selective inhibitors of tumor-initiating cells” (Children's Medical Center Corporation, priority 2011, dated 2017)

Columns and labels:
BPLER cells [1] = assay: Cell viability after drug treatment (CellTiterGlo / Trypan-Blue); assay type: cell-based, human; conditions: 24 hr; for sensitivity of BPLER relative to HMLER cells (viability): increasing doses; for relative viability of BPLER and HMLER cells: CellTiterGlo (FIG. 14)
BPLER cells [2] = assay: Apoptosis (Annexin V/PI flow cytometry, caspase 3 and PARP cleavage immunoblot); assay type: cell-based, human; conditions: 24 hours
Method: BPLER were used as control. […] The percentage of double-positive cells is indicated.
To further define factors underlying such properties of BPLER cells, we first determined the molecular mechanism by which proteasome inhibition affects the growth of these cells.
Immunoblot was performed as described^41. Primary antibodies were as follows: cleaved Caspase 3 (Cell Signaling, rabbit polyclonal, 1:1000), PARP1 (Santa Cruz, rabbit polyclonal, 1:500), MCL1 (Cell Signaling, Rabbit polyclonal, 1:1000), Bim (Santa Cruz, rabbit polyclonal, 1:500), Bik (Cell Signaling, rabbit polyclonal, 1:1000), Puma (Cell Signaling, rabbit polyclonal, 1:1000), Noxa (Calbiochem, mouse monoclonal, 1:500), Bid (Santa Cruz, rabbit polyclonal, 1:500), Bad (Santa Cruz, rabbit polyclonal, 1:500). Antibodies were diluted in 5% milk in TBS-T and incubated O.N. at 4° C. Secondary mouse and rabbit HRP-conjugated antibodies were from Amersham. Protein signal was detected using the ECL Plus kit (Amersham). For flow cytometry, cells were stained as previously described^33, using the following fluorescent-conjugated antibodies: CD44 (BD Biosciences), CD24 (BD Biosciences), CD326 (ESA, Biolegend), Annexin V (Invitrogen). For immunofluorescence microscopy, cells were fixed in 2% PFA for 10 min, permeabilized with 1% Triton X in PBS for 5 min, and incubated with primary antibodies in 0.5% Triton X, 1% FBS in PBS for 30 min at RT. Antibodies were: CK18 (Santa Cruz, mouse monoclonal, 1:100) and CK14 (Millipore, mouse monoclonal, 1:100). After washing the cells were stained sequentially with AlexaFluor647-conjugated secondary antibody (Invitrogen, 1:200) and DAPI (Sigma, 1:5000). For immunohistochemistry, BPLER tumor sections were prepared from paraffin-embedded tissues, deparaffinized and treated with 10% citrate buffer for 15 min. Staining was performed using a BIOGENEX IHC DAB kit (Biogenex) following the manufacturer's protocol. Primary antibodies were: CK14 (Millipore, mouse monoclonal, 1:100), CK5 (Millipore, mouse monoclonal, 1:100), HH3 (Cell Signaling, rabbit polyclonal, 1:100), ER (Abcam, mouse monoclonal, 1:100), Vimentin (Invitrogen, mouse monoclonal 1:100), Ki67 (Millipore, mouse monoclonal, 1:100).

[3] = system: BPE, HMLER and BPLER cells; assay: Cell cycle distribution (propidium iodide DNA staining); conditions: BPE, HMLER and BPLER, 24 hours
BPE cells = conditions: at the indicated dose
HMLER cells = assay: Genome-wide siRNA lethality screen (primary screen), CellTiterGlo viability; assay type: cell-based, human; conditions: siRNA pool against the gene
BPLER cells [4] = assay: Secondary (cherry-pick) screen with the 4 individual siRNAs of each pool
BPLER cells [5] = assay: Genome-wide siRNA lethality screen (primary screen), CellTiterGlo viability; assay type: cell-based, human

Molecule: O=C(O)C(=O)CBr [BRPA, 3-bromo-pyruvic acid]
- sensitivity of BPLER relative to HMLER cells (viability) (BPLER cells [1]): more sensitive

Molecule: NC(N)=NOCC[C@H](N)C(=O)O [L-cavananine]
- relative viability of BPLER and HMLER cells (BPLER cells [1]): not active

Molecule: COC(=O)Nc1nc2ccc(C(=O)c3cccs3)cc2[nH]1 [nocodazole]
- activation of apoptosis by mitotic arrest (BPLER cells [2]): sufficient to activate apoptosis in BPLER cells
- mitotic arrest [3]: underwent mitotic arrest

Molecule: COc1ccc2cc(CCC(C)=O)ccc2c1 [Nabumetone]
- relative viability of BPLER and HMLER cells (BPLER cells [1]): not active

Molecule: O=C(CCCCCCC(=O)Nc1ccccc1)NO [Vorinostat, N′-hydroxy-N-phenyl-octanediamide]
- BPE viability (BPE cells): no effect on BPE viability
- sensitivity of BPLER relative to HMLER cells (viability) (BPLER cells [1]): selectively lethal for BPLER compared to HMLER

Molecule: COc1cccc2c1C(=O)c1c(O)c3c(c(O)c1C2=O)C[C@@](O)(C(=O)CO)C[C@@H]3O[C@H]1C[C@H](N)[C@H](O)[C@H](C)O1 [doxorubicin]
- sensitivity of BPLER relative to HMLER cells (viability) (BPLER cells [1]): responded similarly

Molecule: COc1ccc([C@@H]2CC(=O)c3c(O)cc(O)cc3O2)cc1O [Hesperetin]
- relative viability of BPLER and HMLER cells (BPLER cells [1]): not active

Molecule: CC(=O)N(O)CCCCCNC(=O)CCC(=O)N(O)CCCCCNC(=O)CCC(=O)N(O)CCCCCN [Deferoxamine]
- relative viability of BPLER and HMLER cells (BPLER cells [1]): not active

B1: TMED3 (nucleic acid, listed as Homo sapiens)
DNA: ATCCCCTTACATCCTCCTAGGACCCGGTCGGTAGTCGTCGCCCCAGCCCGCCGGGGGCGCAGCGCCCGAGCCGCGGCCCTCGAGACGGGACCGAGAGCATCATGGGCAGCACTGTCCCGCGCTCCGCCTCCGTGCTGCTTCTGCTGCTGCTCCTGCGCCGGGCCGAGCAGCCCTGCGGGGCCGAGCTCACCTTCGAGCTGCCGGACAACGCCAAGCAGTGCTTCCACGAGGAGGTGGAGCAGGGCGTGAAGTTCTCCCTGGATTACCAGGTCATCACTGGAGGCCACTACGATGTTGACTGCTATGTAGAGGACCCCCAGGGGAACACCATCTACAGAGAAACGAAGAAGCAGTACGACAGCTTCACGTACCGGGCTGAAGTCAAGGGCGTTTATCAGTTTTGCTTCAGTAATGAGTTTTCCACCTTCTCTCACAAGACCGTCTACTTTGACTTTCAAGTGGGCGATGAGCCTCCCATTCTCCCAGACATGGGGAACAGGGTCACAGCTCTCACCCAGATGGAGTCCGCCTGCGTGACCATCCATGAGGCTCTGAAAACGGTGATTGACTCCCAGACGCATTACCGGCTGCGGGAGGCCCAGGACCGGGCCCGAGCGGAAGACCTTAATAGCCGAGTCTCTTACTGGTCTGTTGGCGAGACGATTGCCCTGTTCGTGGTCAGCTTCAGTCAGGTGCTACTGTTGAAAAGCTTCTTCACAGAAAAACGACCCATCAGCAGGGCAGTCCACTCCTAGCCCCGGCATCCTGCTCTAGGGCCCCTCATGCCCCAGGCTGGAGCAGCTCTCCTAGGTCACAGCCTGCTGGGCTGGGTCGCGTAGCCCAGGGTGGAGGCAGAACGATGCTGCTGTGGTAGCCCTTTGCCTTTCATGCCCATGCTTGATTCTTGCACCTCAGCAGCTGAAGGTCTCAGAGACCAGTAATCAGAAGGCATCCGACTGCATTAAGTGTGCAGCGCTGAAAAGACATTTACAACTAGGCCAGGGATTAGCCACTGTGGGAGGGTGGACAGGCAATGGTTCAGTGGCCTGGCTGTTGGCAGGAACTCCAAGTGCCCAGGCCTCTTGGGCAGCTTAGGGCCCTGCCTCTGTTTCATGATGCATGGGTCATTTGTCTTGGGTGTCCTATCCCATATGGAGAAGAAAGGGGCTCTAAGTTCTGGCTCTTCTTTCTTTGGGGTTCTCTGTACCTGAGGAAACCAGGCCCTGGGTGACTTTGCAGATCTGCTCACCCTCGGTGAGCAACAGTGTCAGCCATGCAAGCAGGACAGAATGGTGACTGGGTGCCCTTGGTGAGCTGTGTATTTCCTAGGAGGTAGAAAACTGTGGGAAACTGTGGCTAATAAAAACTAAGTGTGAGCGTCCTGGAGAAAAAAAAAAAAAAAAAAAAAAAAAAAAAAAAAAAAAAAAAAAAAAAA
- MAD_HMLER (HMLER cells; primary screen, HMLER cells, MAD score): −1.28
- Fold_HMLER (HMLER cells; primary screen, HMLER cells, fold viability): 0.80
- MAD HMLER (HMLER cells; MAD score of viability in HMLER cells): −1.28
- Fold HMLER (HMLER cells; fold viability in HMLER cells): 0.80
- Cherry_Score (BPLER cells [4]; secondary cherry-pick screen, 4 individual siRNAs of each pool): 2
- Cherry Score (BPLER cells [4]; secondary screen with the 4 individual siRNAs of each pool): 2
- Ratio BPLER/HMLER (BPLER cells [5]; ratio of Fold_BPLER to Fold_HMLER): 0.68
- Ratio BPLER/HMLER (BPLER cells [5]; ratio of fold viability BPLER/HMLER): 0.68
- MAD BPLER (BPLER cells [5]; siRNA pool against the gene, MAD score of viability in BPLER cells): −2.93
- Fold BPLER (BPLER cells [5]; siRNA pool against the gene, fold viability in BPLER cells): 0.537
